Experimental findings from patent US20130338032A1, “ASSAY FOR DETERMINING EPIGENETIC PROFILES OF MARKERS OF FRAGILE X ALLELES” (Murdoch Childrens Research Institute, priority 2009, published 2013) are described below.

Format in all cases: cell-based, human
In test [1] the test system is FMR1 mRNA. Description: FMR1 mRNA (real-time PCR) in lymphoblast cell lines treated with 5-aza. Conditions: 5-aza 0, 1, 10, 100 μM, 3 days. How it is done: FIG. 1B through J is a graphical representation of the expression of the FMR1 and FRR4 mRNA and FREE1 methylation in lymphoblast cultures with selectively depleted DNMTI. Cell lines from (B, C, D) a HC cell line (30 CGGs), (E, F, G) a PM cell line (103 CGGs) and (H, I, J) a FM cell line from an FXS individual (490 CGGs) were cultured for 3 days in standard RPMI medium/10% v/v fetal bovine serum treated with different doses of 5-aza-deoxycytidine, in triplicate wells, with half of the cells from each well taken for DNA methylation analysis, and the other half for mRNA analyses. FREE1 methylation for each sample was examined from duplicate bisulfite reactions, with single PCR products made from each conversion. The 0.1 methylation output ratio cutoff was not used for this experiment due to an increased number of technical replicates, with values expressed as means of six technical replicates per condition. Methylation and mRNA levels were assessed in the same wells using MALDI-TOF MS and real-time PCR, respectively. The error bars represent standard error (n=3 to 6). […]
(§1) Lymphoblast cell lines were established by Epstein-Barr virus (EBV) transformation from peripheral blood of individuals with: 30, 170 and 490 repeats. […] The cell-viability counts and cell composition were determined by trypan blue exclusion, using a hemocytometer. […]

The test system of test [2] is FMR4/ASFMR1 mRNA. Description: FMR4/ASFMR1 mRNA (real-time PCR) in lymphoblast cell lines treated with 5-aza. As to the method:
(§2) FIG. 1B through J is a graphical representation of the expression of the FMR1 and FRR4 mRNA and FREE1 methylation in lymphoblast cultures with selectively depleted DNMTI. Cell lines from (B, C, D) a HC cell line (30 CGGs), (E, F, G) a PM cell line (103 CGGs) and (H, I, J) a FM cell line from an FXS individual (490 CGGs) were cultured for 3 days in standard RPMI medium/10% v/v fetal bovine serum treated with different doses of 5-aza-deoxycytidine, in triplicate wells, with half of the cells from each well taken for DNA methylation analysis, and the other half for mRNA analyses. FREE1 methylation for each sample was examined from duplicate bisulfite reactions, with single PCR products made from each conversion. The 0.1 methylation output ratio cutoff was not used for this experiment due to an increased number of technical replicates, with values expressed as means of six technical replicates per condition. Methylation and mRNA levels were assessed in the same wells using MALDI-TOF MS and real-time PCR, respectively. The error bars represent standard error (n=3 to 6). All conditions were compared to 0 μM 5-aza control: ***-p<0.001; **-p<0.05.
as §1
Total RNA was extracted and purified using the Rneasy extraction kit, as per manufacturer's instructions (Qiagen Inc., Hilden, Germany). RNA concentrations were measured in triplicate using a NanoDrop ND-1000 Spectrophotometer, with purity being determined by the A260/A280 ratio using the expected values between 1.8 and 2. Total RNA quality and the degree of DNA contamination was also assessed using capillary electrophoresis Standard Sens Kit (Bio-rad), which involved descriptive comparison of chromatographic features based on previous publications using this system (Fleige and Pfaffl, Mol Aspects Med 27(2-3):126-139, 2006). […]

The test system of test [3] is FREE1. Description: FREE1 methylation (MALDI-TOF MS) in lymphoblast cell lines treated with 5-aza. How it is done:
as §2
Lymphoblast cell lines were established by Epstein-Barr virus (EBV) transformation from peripheral blood of individuals with: 30, 170 and 490 repeats. The cell lines were treated with 5 aza based on a previously described protocol (Pietrobono et al, 2002, supra). Briefly, A 10 mM stock solution of 5-aza (Sigma-Aldrich) was initially prepared in sterile water. The cell-viability counts and cell composition were determined by trypan blue exclusion, using a hemocytometer. Cells were then resuspended at a density of […] in RPMI medium (Sigma St Luis, Mo., USA)/10% v/v Fetal bovine serum (CSL) at 37° C., 5% v/v CO2, supplemented with of 5-aza stock and thoroughly resuspended. The cells were cultured in triplicate wells for each of the four final 5-Aza concentrations of: 0, 1, 10 and 100 μM. […]

Setting [4] is: GZ and PM cell lines, 5-aza 0, 1, 10, 100 μM, 3 days.
Setting [5] is: cell lines for FM carriers affected with FXS, 5-aza 0, 1, 10, 100 μM, 3 days.
[6] abbreviates: cell lines from carriers of CGG alleles ranging from normal size to FM, 5-Aza treatment.

In the case of `Nc1ncn([C@H]2C[C@H](O)[C@@H](CO)O2)c(=O)n1` [5-aza, 5-aza-2′-deoxycytidine], the “FMR1 mRNA levels” value in test [1] (GZ and PM cell lines) is listed as “increase”. The “mRNA levels of FMR1” value in test [1] (cell lines for FM carriers affected with FXS) was “increase in mRNA levels”. Further, in test [2] (setting [4]), the “ASFMR1/FMR4 mRNA levels” value is “increase”. The “mRNA levels of ASFMR1/FMR4” value in test [2] (setting [5]) is on record as “increase in mRNA levels”. Besides, the “FMR4/ASFMR1 transcription within the FREE1” value in test [2] (setting [6]) is “increase FMR4/ASFMR1 transcription”. In addition, the FREE1 methylation entry in test [3] (setting [4]) is “further demethylation of FREE1”; in test [3] (setting [5]), “demethylation of FREE1”; in test [3] (setting [6]), “de-methylation of the FREE1”.
